{"source": "patent US8371292B2", "about": "“Use of ciclesonide for the treatment of respiratory diseases” (Nycomed GmbH, priority 2003, dated 2013)", "key": {"[1]": {"experiment": "clinical study in children with mild asthma: tolerability", "type": "in vivo, human", "settings": "40, 80 and 160 μg once daily, 2 weeks", "protocol": "(§1) The present study was conducted to determine the effects of ciclesonide at doses intended for the use in children on lower leg growth rate and HPA function in children with mild asthma.\n(§2) METHODS: In a double blind, randomized, placebo-controlled, 4-period cross-over study, 24 children, 6 to 12 years of age, received ciclesonide 40, 80 and 160 μg or placebo via HFA-MDI once daily in the evening. Each 2-week treatment period was followed by a 2-week washout. Knemometry was performed at the beginning and the end of each treatment period. Cortisol levels in 12 h overnight urine were measured at the end of each treatment period."}, "[2]": {"experiment": "clinical study in children with mild asthma: lower leg growth rate by knemometry", "type": "in vivo, human", "settings": "for lower leg growth rate: 2-week treatment, children 6 to 12 years, placebo 0.412 mm/week", "protocol": "as §1, §2"}, "[3]": {"settings": "cited from earlier work"}, "[4]": {"settings": "cited from earlier work", "remark": "listed apart in the source"}, "[5]": {"experiment": "clinical study in children with mild asthma: HPA function, cortisol in 12 h overnight urine", "type": "in vivo, human", "settings": "40, 80 and 160 μg once daily or placebo, 12 h overnight urine at end of each 2-week period", "protocol": "as §1, §2"}, "[6]": {"settings": "40, 80 and 160 μg once daily, 2 weeks"}}}
{"smiles": "CC(C)C(=O)OCC(=O)[C@@]12O[C@H](C3CCCCC3)O[C@@H]1C[C@H]1[C@@H]3CCC4=CC(=O)C=C[C@]4(C)[C@H]3[C@@H](O)C[C@@]12C", "note": "[ciclesonide, [11β,16α(R)]-16,17-[(Cyclohexylmethylen)bis(oxy)]-11-hydroxy-21-(2-methyl-1-oxopropoxy)pregna-1,4-dien-3,20-dion]", "values": [{"measurement": "tolerability", "setting": "[1]", "result": "well tolerated"}, {"measurement": "lower leg growth rate", "setting": "[2]; 40 μg once daily in the evening via HFA-MDI", "result": 0.425, "unit": "mm/week"}, {"measurement": "lower leg growth rate", "setting": "[2]; 80 μg once daily in the evening via HFA-MDI", "result": 0.397, "unit": "mm/week"}, {"measurement": "lower leg growth rate", "setting": "[2]; 160 μg once daily in the evening via HFA-MDI", "result": 0.370, "unit": "mm/week"}, {"measurement": "difference in lower-leg growth rates between ciclesonide treatments and placebo", "setting": "[2]; [6]", "result": "No statistically significant differences"}, {"measurement": "dose-response effect on lower leg growth rate", "setting": "[2]; [6]", "result": "no statistically significant dose-response effect"}, {"measurement": "concentration of the drug in the lungs", "setting": "[3]; in vivo", "result": "high"}, {"measurement": "metabolism by liver oxidases", "setting": "[3]; in vivo", "result": "very high"}, {"measurement": "plasma half-life", "setting": "[3]; in vivo", "result": "low plasma half-life"}, {"measurement": "absorption after oral administration", "setting": "[3]; oral", "result": "only moderately absorbed"}, {"measurement": "systemic activity", "setting": "[4]; in vivo", "result": "low systemic activity"}, {"measurement": "anti-inflammatory activity compared with budesonide", "setting": "[4]; relative to budesonide", "result": "higher"}, {"measurement": "systemic activity compared with budesonide", "setting": "[4]; relative to budesonide", "result": "three times lower"}, {"measurement": "urinary free cortisol adjusted for creatinine, difference between treatments", "setting": "[5]", "result": "no difference"}]}
